In patent US20160264593A1 (priority 2013, published 2016):
Values joined by “and” are separate entries in the source; they are usually repeats but may differ in a detail not shown here. Identical values can stand only once. “Also recorded” adds a separate entry of the source. Like-named read-outs stand apart in the source and are kept apart here.

Experiments:
PP2A [1] = test: PP2A activity in mouse brains after IP dosing (PP2A immunoprecipitation phosphatase assay, malachite green); type: in vivo, Balb/c mice; conditions: for PP2A activity in the brain of mice (statement): IP, dose and time not specified; for Average Conc. (group of 3 mice) / Average Relative Activity (group, vehicle = 100) / Conc. (phosphate, single reading, per mouse) / Mean Conc. (per mouse) / Mean Conc. less IgG blank (per mouse) / Relative Conc. (per mouse, to vehicle) / Relative PP2A Activity (per mouse, vehicle = 100): brain; for PP2A activity in brains as compared with vehicle: high doses IP
How it was run: (§1)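 Female Balb/c mice (6-8 weeks) were dosed IP with compound in 4% sodium bicarbonate; brain and liver were harvested 3 h and 6 h post-dose. PP2A was immunoprecipitated from 240 μg lysate with anti-PP2A, using normal IgG as control. Phosphatase activity on a threonine phosphopeptide was read by malachite green absorbance against a phosphate standard curve.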

[2] = system: glioblastoma (U-87) cells; test: WST cell viability assay, U-87 MG; type: cell-based; conditions: Homo sapiens, U-87 MG
PP2A [3] = test: PP2A activity in mouse livers after IP dosing (PP2A immunoprecipitation phosphatase assay, malachite green); type: in vivo, Balb/c mice; conditions: for PP2A activity in the liver of mice (statement): IP, dose and time not specified; for activity of PP2A in livers as compared with vehicle (statement): high dose IP, 6 h post treatment; for Average Conc. (group of 3 mice) / Average Relative Activity (group, vehicle = 100) / Conc. (phosphate, single reading, per mouse) / Mean Conc. (per mouse) / Mean Conc. less IgG blank (per mouse) / Relative Conc. (per mouse, to vehicle) / Relative PP2A Activity (per mouse, vehicle = 100): liver
How it was run: as §1

lung cancer (A549) cells = test: WST cell viability assay, A549; type: cell-based; conditions: Homo sapiens, A549, read-out: IC50 A549
[4] = system: breast cancer (2LMP) cells; test: WST cell viability assay, 2LMP
Excerpt: IC50 values were obtained for cytotoxicity against breast cancer (2LMP), glioblastoma (U-87) and lung cancer (A549) cells (See Table 5 and FIGS. 3-5).

[5] = high dose IP (mpk: 100 1.5, 113 2.2, 151 1.6, 153 1.7, 157 2.0), 3 h
[6] = high dose IP (mpk: 100 1.5, 113 2.2, 151 1.6, 153 1.7, 157 2.0), 6 h
[7] = low dose IP (mpk: 100 0.75, 113 1.1, 151 0.8, 153 0.85, 157 1.0), 3 h
[8] = low dose IP (mpk: 100 0.75, 113 1.1, 151 0.8, 153 0.85, 157 1.0), 6 h
[9] = read-out: IC50 U-87 MG, WST-20131017 (first value of the cell)
[10] = read-out: IC50 U-87 MG, WST-20131024 (second value of the cell)
[11] = read-out: IC50 2LMP, WST-20131015 (first value of the cell)
[12] = read-out: IC50 2LMP, WST-20131025 (second value of the cell)
[13] = high dose IP (mpk: 100 1.5, 113 2.2, 151 1.6, 157 2.0), 3 h
[14] = high dose IP (mpk: 100 1.5, 113 2.2, 151 1.6, 157 2.0), 6 h

## CCCOC(=O)C1C2CCC(O2)C1C(=O)N1CCN(C)CC1 (stereo not drawn) [Compound 153, 3-(4-Methylpiperazine-1-carbonyl)-7-oxa-bicyclo[2,2,1]heptane-2-carboxylic acid propyl ester]
PP2A [1]
  PP2A activity in the brain of mice (statement): inhibited PP2A activity
PP2A [1]; [5]
  Average Conc. (group of 3 mice): 1620.00
  Average Relative Activity (group, vehicle = 100): 65.73
  Conc. (phosphate, single reading, per mouse): 2278.33 and 2174.47 and 1309.82 and 1252.91 and 1475.88 and 1456.77
  Mean Conc. (per mouse): 2226.40 and 1281.36 and 1466.33
  Mean Conc. less IgG blank (per mouse): 2188.37 and 1243.34 and 1428.30
  Relative Conc. (per mouse, to vehicle): 1.01 and 0.57 and 0.66
  Relative PP2A Activity (per mouse, vehicle = 100): 88.79 and 50.45 and 57.95
PP2A [1]; [6]
  Average Conc. (group of 3 mice): 1696.22
  Average Relative Activity (group, vehicle = 100): 61.07
  Conc. (phosphate, single reading, per mouse): 1822.84 and 1778.73 and 1685.64 and 1802.51 and 1690.72 and 1625.07
  Mean Conc. (per mouse): 1800.78 and 1744.07 and 1657.89
  Mean Conc. less IgG blank (per mouse): 1762.76 and 1706.05 and 1619.87
  Relative Conc. (per mouse, to vehicle): 0.72 and 0.70 and 0.66
  Relative PP2A Activity (per mouse, vehicle = 100): 63.47 and 61.43 and 58.32
PP2A [1]; high dose IP, 3 h
  activity of PP2A in brains (statement): more effectively than compound 100
PP2A [1]; high dose IP, 6 h
  activity of PP2A in brains (statement): significantly inhibited; also recorded: more effectively than compound 100
PP2A [1]; 6 h post treatment
  PP2A activity in brains as compared with vehicle: 61%
PP2A [1]; [7]
  Average Conc. (group of 3 mice): 2159.78
  Average Relative Activity (group, vehicle = 100): 87.63
  Conc. (phosphate, single reading, per mouse): 2670.21 and 2571.02 and 1916.94 and 1817.15 and 2140.93 and 2070.60
  Mean Conc. (per mouse): 2620.61 and 1867.04 and 2105.77
  Mean Conc. less IgG blank (per mouse): 2582.58 and 1829.02 and 2067.74
  Relative Conc. (per mouse, to vehicle): 1.19 and 0.84 and 0.95
  Relative PP2A Activity (per mouse, vehicle = 100): 104.78 and 74.21 and 83.90
PP2A [1]; [8]
  Average Conc. (group of 3 mice): 2104.97
  Average Relative Activity (group, vehicle = 100): 75.79
  Conc. (phosphate, single reading, per mouse): 1969.99 and 2070.60 and 2070.20 and 2078.94 and 2387.89 and 2280.36
  Mean Conc. (per mouse): 2020.30 and 2074.57 and 2334.12
  Mean Conc. less IgG blank (per mouse): 1982.27 and 2036.54 and 2296.10
  Relative Conc. (per mouse, to vehicle): 0.81 and 0.83 and 0.94
  Relative PP2A Activity (per mouse, vehicle = 100): 71.37 and 73.33 and 82.67
[2]; [9]
  IC50: > 100 µM
[2]; [10]
  IC50: > 100 µM
PP2A [3]
  PP2A activity in the liver of mice (statement): inhibited PP2A activity
  activity of PP2A in livers as compared with vehicle (statement): significantly inhibited
PP2A [3]; [7]
  Average Conc. (group of 3 mice): 387.63
  Average Relative Activity (group, vehicle = 100): 92.3
  Conc. (phosphate, single reading, per mouse): 445.88 and 461.99 and 441.96 and 438.48 and 396.24 and 414.09
  Mean Conc. (per mouse): 453.94 and 440.22 and 405.17
  Mean Conc. less IgG blank (per mouse): 408.46 and 394.74 and 359.69
  Relative Conc. (per mouse, to vehicle): 0.97 and 0.94 and 0.86
  Relative PP2A Activity (per mouse, vehicle = 100): 97.26 and 93.99 and 85.65
PP2A [3]; [8]
  Average Conc. (group of 3 mice): 364.7
  Average Relative Activity (group, vehicle = 100): 82.05
Lung cancer (A549) cells
  IC50: > 100 µM
[4]; WST, 2LMP
  cytotoxicity against breast cancer cells (statement): cytotoxic
[4]; [11]
  IC50: 69.1 µM
[4]; [12]
  IC50: 62 µM

## CCCCCCCOC(=O)C1C2CCC(O2)C1C(=O)N1CCN(C)CC1 (stereo not drawn) [Compound 157, 3-(4-Methylpiperazine-1-carbonyl)-7-oxa-bicyclo[2,2,1]heptane-2-carboxylic acid heptyl ester]
PP2A [1]
  PP2A activity in the brain of mice (statement): inhibited PP2A activity
PP2A [1]; [5]
  Average Conc. (group of 3 mice): 1343.13
  Average Relative Activity (group, vehicle = 100): 54.50
  Conc. (phosphate, single reading, per mouse): 1589.30 and 1726.49 and 1634.83 and 1576.29 and 896.81 and 863.27
  Mean Conc. (per mouse): 1657.89 and 1605.56 and 880.04
  Mean Conc. less IgG blank (per mouse): 1619.87 and 1567.53 and 842.01
  Relative Conc. (per mouse, to vehicle): 0.75 and 0.72 and 0.39
  Relative PP2A Activity (per mouse, vehicle = 100): 65.72 and 63.60 and 34.16
PP2A [1]; [6]
  Average Conc. (group of 3 mice): 1748.29
  Average Relative Activity (group, vehicle = 100): 62.95
  Conc. (phosphate, single reading, per mouse): 1929.55 and 2102.31 and 1375.88 and 1308.40 and 1958.00 and 2043.77
  Mean Conc. (per mouse): 2015.93 and 1342.14 and 2000.89
  Mean Conc. less IgG blank (per mouse): 1977.90 and 1304.11 and 1962.86
  Relative Conc. (per mouse, to vehicle): 0.81 and 0.53 and 0.80
  Relative PP2A Activity (per mouse, vehicle = 100): 71.22 and 46.96 and 70.67
PP2A [1]; high dose IP, 3 h
  activity of PP2A in brains (statement): most potent; also recorded: significantly inhibited; also recorded: more effectively than compound 100
PP2A [1]; high dose IP, 6 h
  activity of PP2A in brains (statement): most potent; also recorded: significantly inhibited; also recorded: more effectively than compound 100
PP2A [1]; 3 h post treatment
  PP2A activity in brains as compared with vehicle: 51%
PP2A [1]; 6 h post treatment
  PP2A activity in brains as compared with vehicle: 63%
PP2A [1]; [7]
  Average Conc. (group of 3 mice): 1523.35
  Average Relative Activity (group, vehicle = 100): 61.81
  Conc. (phosphate, single reading, per mouse): 1696.01 and 1732.18 and 1420.80 and 1346.00 and 1604.74 and 1568.56
  Mean Conc. (per mouse): 1714.09 and 1383.40 and 1586.65
  Mean Conc. less IgG blank (per mouse): 1676.07 and 1345.37 and 1548.63
  Relative Conc. (per mouse, to vehicle): 0.77 and 0.62 and 0.71
  Relative PP2A Activity (per mouse, vehicle = 100): 68.00 and 54.59 and 62.83
PP2A [1]; [8]
  Average Conc. (group of 3 mice): 1413.26
  Average Relative Activity (group, vehicle = 100): 50.88
  Conc. (phosphate, single reading, per mouse): 1975.68 and 1782.39 and 1408.40 and 1380.55 and 1075.87 and 1084.82
  Mean Conc. (per mouse): 1879.04 and 1394.48 and 1080.34
  Mean Conc. less IgG blank (per mouse): 1841.01 and 1356.45 and 1042.32
  Relative Conc. (per mouse, to vehicle): 0.75 and 0.55 and 0.43
  Relative PP2A Activity (per mouse, vehicle = 100): 66.29 and 48.84 and 37.53
PP2A [1]; low dose IP, 6 h
  activity of PP2A in brains (statement): most potent
[2]; [9]
  IC50: > 100 µM
[2]; [10]
  IC50: > 100 µM
PP2A [3]
  PP2A activity in the liver of mice (statement): inhibited PP2A activity
  activity of PP2A in livers as compared with vehicle (statement): significantly inhibited
PP2A [3]; [13]
  Average Conc. (group of 3 mice): 234.28
  Average Relative Activity (group, vehicle = 100): 55.78
  Conc. (phosphate, single reading, per mouse): 344.85 and 360.53 and 257.33 and 287.81 and 202.46 and 225.54
  Mean Conc. (per mouse): 352.69 and 272.57 and 214
  Mean Conc. less IgG blank (per mouse): 307.22 and 227.09 and 168.52
  Relative Conc. (per mouse, to vehicle): 0.73 and 0.54 and 0.4
  Relative PP2A Activity (per mouse, vehicle = 100): 73.15 and 54.07 and 40.13
PP2A [3]; [14]
  Average Conc. (group of 3 mice): 232.03
  Average Relative Activity (group, vehicle = 100): 52.2
  Conc. (phosphate, single reading, per mouse): 266.91 and 213.78 and 382.3 and 411.92 and 190.7 and 199.41
  Mean Conc. (per mouse): 240.34 and 397.11 and 195.06
  Mean Conc. less IgG blank (per mouse): 194.87 and 351.63 and 149.58
  Relative Conc. (per mouse, to vehicle): 0.44 and 0.79 and 0.34
  Relative PP2A Activity (per mouse, vehicle = 100): 43.84 and 79.11 and 33.65
PP2A [3]; [7]
  Average Conc. (group of 3 mice): 328.84
  Average Relative Activity (group, vehicle = 100): 78.3
PP2A [3]; [8]
  Average Conc. (group of 3 mice): 359.62
  Average Relative Activity (group, vehicle = 100): 80.9
Lung cancer (A549) cells
  IC50: > 100 µM
[4]; [11]
  IC50: 92.2 µM
[4]; [12]
  IC50: 96.4 µM
